Data as given in PMC6715247 (PLoS Neglected Tropical Diseases, 2019).
“Also recorded” adds a separate entry of the source. Read-outs that look alike come from different tables or passages of the source.

What was measured:
rEhAPSK = rEhAPSK (Entamoeba histolytica, UniProt C4LUW9); experiment: 96-well plate-based in vitro APSK activity assay (coupling assay, NADH decrease); format: biochemical; details: for Inhibition of rEhAPSK activity: 10 μM compound, 1% DMSO
Description: (§1) A coupling assay to measure APSK activity was performed as described except a 96-well plate was used. Briefly, each well contained 100 μL reaction mixture, which consisted of 90 μL coupling solution and 10 μL of either compound solution (see below) or 10% DMSO. […] The coupling solution was 100 mM Tris/HCl (pH 8.0), 1 mM MgCl2, 1 mM KCl, 5 mM Mg2ATP, 1 mM NADH, 1 mM PEP, 1 U NP1, 3.5 U PK, 5.0 U LDH, and APSK (≤3 μL). […] As controls, in place of purified APSK solution (rEhAPSK or rHsAPSK), 3 μL of a blank [50 mM Tris/HCl buffer (pH 8.0)], a solvent (elution buffer), a mock (rEhSF2), or denatured APSK suspensions obtained by heat-treatment, were added to the coupling solution. The activity of each sample was calculated after removing the baseline value of the blank control.
(§2) For the inhibition assay, 2 μL of each stock solution, which were distributed in a 96-well plate, were transferred to a new plate to make a replicate. After adding 18 μL deionized water to each well and mixing, 10 μL of each diluted solution (100 μM compound solution) was again transferred into a new 96-well plate to make a replicate. Then 90 μL of the coupling solution prepared above was dispensed into each well containing the previously added 10 μL of 100 μM compound solution. As a solvent control, 10% DMSO solution (vol/vol-deionized water) was used in place of compound solution. The final concentrations of each compound and DMSO in a well were 10 μM and 1% (vol/vol), respectively. The assays were performed independently three times, and data are shown as the mean with SD.
One millimolar stock solutions used were either thawed in a replicate (96-well plate) prepared in [18] […] Subsequently, 3.4 μL of the 1 mM and each diluted stock solution were dispensed into wells of a 96-well culture plate, containing 30.6 μL deionized water and mixed well by pipetting. Ten microliters of all resulting solutions were then dispensed into wells of a 96-well plate to make triplicates and then used as described for the above inhibition assay. 10% DMSO solution was used as an inhibitor-free control. Note that the final DMSO concentration in any well was 1% (vol/vol).
(§3) In all assays, prepared mixtures in a plate were mixed on a vibrating table equipped with either an EnVision or ARVO plate reader (PerkinElmer) before starting the reaction.

[1] = tested on: E. histolytica trophozoite; experiment: E. histolytica trophozoite proliferation assay (flow cytometry); format: cell-based; details: Entamoeba histolytica, read-out: Trophozoite proliferation IC50
Description: (§4) E. histolytica trophozoite proliferation and E. invadens cyst formation assays were performed essentially as described in [18] except that in addition to 0–72 and 48–72 h cyst formation assays, 0–96 and 0–120 h, and 48–96 and 48–120 h assays were also performed.

[2] = tested on: E. invadens cyst formation; parameters: method as in PMID 30087858; details: 10 μM; ref [18]; cited from earlier work
[3] = WST-1-based cytotoxicity assay; details: human
Description: (§5) Human foreskin fibroblast (HFF) cells (purchased from ATCC) were routinely maintained in DMEM supplemented with 10% fetal bovine serum, 100 units/ml penicillin, […] and 1% GlutaMAX™-I (Thermo Fisher Scientific, Waltham, MA). A WST-1-based cytotoxicity assay was performed as previously described. In detail, HFF cells were plated at 1.0×10^4 cells/100 μL medium in each well of a 96-well culture plate, and incubated overnight at 37°C in a 5% CO2 atmosphere to allow cells to adhere to the wells. […] Numbers of viable cells were then assessed using the Premix WST-1 Cell Proliferation Assay System (Takara). […] DMSO was added at 1% as a negative control whereas ionomycin was added at 30 μM as a positive control. As a blank, the above culture medium was used in place of the solutions added.

[4] = tested on: E. invadens cyst formation; experiment: E. invadens cyst formation (encystation) assay (flow cytometry); format: cell-based, Entamoeba invadens; details: for IC50: Entamoeba invadens, read-out: Cyst formation IC50; for Number of cysts formed at 72 h: compound added at 48 h post-induction (48–72 h)
Description: as §4

[5] = tested on: sulfolipids synthesized in E. histolytica trophozoites; experiment: Metabolic labeling by [35S]-labeled sulfate, sulfolipid synthesis; format: cell-based, Entamoeba histolytica; details: 6 h treatment; A-D-11, A-H-11 6.25-100 μM, E-H-05 0.5-8 μM
Description: Metabolic labeling of E. histolytica trophozoites by [^35S]-labeled sulfate was performed essentially as described previously with slight modification. […] Each 10 mM stock solution (in DMSO) of the three commercially sourced compounds was serially diluted by 2-fold decrements with DMSO. The resulting diluted solutions were then added to 0.75 ml cell suspension in BI-S-33 medium at 1/100 (vol/vol). […] Note that DMSO was used as a solvent control at 1%, which was the DMSO concentration in all samples analyzed. [^35S]-labeled sulfate (45 μCi) was added 4 h after the start of treatments and labeled cells were harvested at 6 h. […] Each spot on the TLC plates was quantified using a Fuji imaging analyzer and Multi Gauge 2.2 software (FLA-7000; Fujifilm, Japan). The total cell protein was estimated using a Pierce BCA protein assay kit (Thermo Scientific, Rockford, IL, USA).

[6] = target: T1, rHsAPSK (recombinant APSK domain of HsPAPSS1) (Homo sapiens, UniProt O43252); experiment: 96-well plate-based in vitro APSK activity assay (coupling assay, NADH decrease); format: biochemical; details: 10 μM compound, 1% DMSO
T1 construct: APSK domains of HsPAPSS1 (Ala^25—Pro^227) and -2 (Ser^15—Pro^217); His tag (pCold-I vector); made in house; host or cells: E. coli BL21(DE3)
T1 sequence (O43252 25-227): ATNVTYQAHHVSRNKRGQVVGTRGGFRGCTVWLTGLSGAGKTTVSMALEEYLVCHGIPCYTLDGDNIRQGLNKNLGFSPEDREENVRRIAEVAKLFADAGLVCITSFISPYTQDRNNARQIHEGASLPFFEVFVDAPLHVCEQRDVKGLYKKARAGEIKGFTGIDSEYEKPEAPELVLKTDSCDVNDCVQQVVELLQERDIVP
Description: as §1, §2, §3

[7] = tested on: E. histolytica trophozoites; experiment: Morphological analysis by phase contrast microscopy; format: cell-based, Entamoeba histolytica; details: 6 h treatment
From the text: Cell morphology was then observed by phase contrast microscopy using a Primovert microscope (Carl Zeiss, Germany) with a COMS camera (E3CMOS12000KPA, ToupTek, China). […] Cell images were captured using ToupView software (ToupTek).

[8] = tested on: Human foreskin fibroblast (HFF) cells; experiment: WST-1-based cytotoxicity assay
Description: as §5

[9] = tested on: E. histolytica trophozoite; parameters: method as in PMID 30087858; details: 10 μM; ref [18]; cited from earlier work
[10] = read-out: APSK activity IC50, rEhAPSK, average ± SD, more than three independent experiments
[11] = rEhAPSK, average ± SD, more than three independent experiments, read-out: APSK activity IC50

Chain of rEhAPSK (C4LUW9 entry or part of it): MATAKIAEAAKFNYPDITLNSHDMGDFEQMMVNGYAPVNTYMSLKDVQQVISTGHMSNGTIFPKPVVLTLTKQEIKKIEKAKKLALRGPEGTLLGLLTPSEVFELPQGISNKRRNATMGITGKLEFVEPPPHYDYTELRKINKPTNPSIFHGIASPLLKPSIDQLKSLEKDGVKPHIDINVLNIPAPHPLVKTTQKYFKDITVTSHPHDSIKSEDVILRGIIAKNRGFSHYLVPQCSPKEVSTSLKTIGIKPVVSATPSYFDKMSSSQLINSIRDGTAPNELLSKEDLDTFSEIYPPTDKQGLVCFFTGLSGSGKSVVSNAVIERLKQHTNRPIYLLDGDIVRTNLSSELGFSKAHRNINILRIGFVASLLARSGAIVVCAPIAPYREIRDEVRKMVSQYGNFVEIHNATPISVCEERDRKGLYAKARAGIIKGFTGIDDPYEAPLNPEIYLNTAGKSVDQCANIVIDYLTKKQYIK

Inhibition of rEhAPSK activity (rEhAPSK)	IC50 (rEhAPSK; [11]) [µM]	SMILES	Number of viable HFF cells relative to 1% DMSO control (set as 100%) ([8]; 10 μM, 48 h)	further results
reproducibly inhibited rEhAPSK activity	> 10	COc1cccc(-n2nnnc2S(=O)(=O)Cc2ccccc2)c1 [A-F-04]		
reproducibly inhibited rEhAPSK activity	7.67 ± 1.25	Cc1cc(C)cc(COc2ccc3c(C)c(CCC(=O)O)c(=O)oc3c2C)c1 [A-F-07]	did not affect numbers of viable cells	
reproducibly inhibited rEhAPSK activity	6.75 ± 1.35	O=C(Nc1nc(-c2ccccn2)cs1)c1cncn1-c1ccccc1 [A-H-11, 3-phenyl-N-[4-(2-pyridyl)thiazol-2-yl]-imidazole-4-carboxamide]	did not affect numbers of viable cells; also recorded: did not influence numbers of viable HFF cells	Effect on trophozoite proliferation [9]: negative effects; IC50 ([1]; average ± SD, three independent experiments): 4 ± 1.05 µM; Effect on cyst formation [2]: negative effects; Number of viable HFF cells relative to DMSO control ([8]; 100 μM, 48 h): did not influence numbers of viable HFF cells; IC50 at 48 h ([3]; human foreskin fibroblast (HFF) cells): > 100 µM; IC50 ([4]; 0–72 h, average ± SD, three independent experiments): 2350 ± 132 nM; Number of cysts formed at 72 h [4]: neither A-D-11 nor A-H-11 affected the number of cysts formed at 72 h; Amount of sulfolipids synthesized [5]: dose-dependently reduced the amount of sulfolipids synthesized; Inhibition of rHsAPSK activity [6]: none showed any inhibitory activity against HsAPSK; Concentration range that produced trophozoite morphology similar to DMSO control [7]: 6.25–100 μM
reproducibly inhibited rEhAPSK activity	6.57 ± 1.25	COc1ccc(Cl)cc1NC(=O)CN(C)C(=O)c1cnn(-c2ccccc2)n1 [B-C-08]	did not affect numbers of viable cells	
reproducibly inhibited rEhAPSK activity	8.67 ± 2.62	Cn1c(=O)c2c(S(C)(=O)=O)snc2n(C)c1=O [C-C-06]		
reproducibly inhibited rEhAPSK activity	2.03 ± 0.205	N=C(N)Nc1ccc(-c2ccc(-c3ccc(NC(=N)N)cc3Cl)o2)c(Cl)c1 [C-F-03]	did not affect numbers of viable cells	
reproducibly inhibited rEhAPSK activity	> 10	C[C@]1(COc2ccc(N3CCC(Oc4ccc(OC(F)(F)F)cc4)CC3)cc2)Cn2cc([N+](=O)[O-])nc2O1 [C-F-06, delamanid, reference compound]	did not affect numbers of viable cells	
reproducibly inhibited rEhAPSK activity	0.47 ± 0.0499	N=C(N)Nc1ccc(-c2ccc(-c3ccc(NC(=N)N)c(Cl)c3)o2)cc1Cl [D-E-10]	did not affect numbers of viable cells	
reproducibly inhibited rEhAPSK activity	> 10	O=C(Nc1nnc(S)s1)c1cc(Br)ccc1Cl [E-G-10]	did not affect numbers of viable cells	
		C[C@H](CCC(=O)O)C[C@H](C)C[C@H](C)C(=O)/C=C(\O)[C@H](C)C[C@H](C)C/C=C/[C@@H](C)[C@@H](O)[C@@H](C)[C@@H](O)C[C@@H]1CC[C@@](C)([C@H]2CC[C@@](C)([C@@H](C)O)O2)O1 [ionomycin, reference compound]		HFF cell viability ([8]; 30 μM, positive control): almost completely abolished cell viability

SMILES	Inhibition of rEhAPSK activity (rEhAPSK)	IC50 (rEhAPSK; [11]) [µM]	Number of viable HFF cells relative to 1% DMSO control (set as 100%) ([8]; 10 μM, 48 h)	further results
COc1ccc(C2=NN(C3CCCCCC3)C(=O)C2(C)C)cc1OCCCCOc1ccc(-c2nnn[nH]2)cc1 [A-C-05]	reproducibly inhibited rEhAPSK activity			IC50 (rEhAPSK): 4.73 ± 1.16 µM; IC50 (rEhAPSK; [10]): < 10 µM
O=C(COc1cccc(F)c1)Nc1nc(-c2ccccn2)cs1 [A-D-11, 2-(3-fluorophenoxy)-N-[4-(2-pyridyl)thiazol-2-yl]-acetamide]	reproducibly inhibited rEhAPSK activity			IC50 (rEhAPSK): 6.3 ± 1.53 µM; IC50 (rEhAPSK; [10]): < 10 µM; IC50 [1]: 7.5 ± 2.29 µM; Effect on cyst formation [2]: negative effects; IC50 at 48 h [3]: > 100 µM; IC50 [4]: 2270 ± 252 nM; Number of cysts formed at 72 h [4]: neither A-D-11 nor A-H-11 affected the number of cysts formed at 72 h; Amount of sulfolipids synthesized [5]: dose-dependently reduced the amount of sulfolipids synthesized; Inhibition of rHsAPSK activity [6]: none showed any inhibitory activity against HsAPSK; Concentration range that produced trophozoite morphology similar to DMSO control [7]: 6.25–100 μM
Cc1cc(C2=NOC(c3cc(Cl)c(F)c(Cl)c3)(C(F)(F)F)C2)ccc1C(=O)NCc1ccc2c(c1)C(C)(C)OB2O (centres unmarked) [B-B-05]	reproducibly inhibited rEhAPSK activity			IC50 (rEhAPSK): 5.73 ± 1.36 µM; IC50 (rEhAPSK; [10]): < 10 µM; Number of viable HFF cells relative to 1% DMSO control (set as 100%) ([8]; 10 µM): did not affect numbers of viable cells
COc1ccc(C2=NN(C3CCCCCC3)C(=O)C3CC=CCC23)cc1OCCCCOc1ccc(-c2nnn[nH]2)cc1 (centres unmarked) [B-C-02]	reproducibly inhibited rEhAPSK activity			Number of viable HFF cells relative to 1% DMSO control (set as 100%) ([8]; 10 µM): ~20 − ~60
Cc1ccc(C(=O)Nc2ccc(S(=O)(=O)O)c3cc(S(=O)(=O)O)cc(S(=O)(=O)O)c23)cc1NC(=O)c1cccc(NC(=O)Nc2cccc(C(=O)Nc3cc(C(=O)Nc4ccc(S(=O)(=O)O)c5cc(S(=O)(=O)O)cc(S(=O)(=O)O)c45)ccc3C)c2)c1 [B-D-03, suramin, reference compound]	reproducibly inhibited rEhAPSK activity	0.52 ± 0.102		Number of viable HFF cells relative to 1% DMSO control (set as 100%) ([8]; 10 µM): did not affect numbers of viable cells
